Like-named read-outs stand apart in the source and are kept apart here.

We go through two molecules from publication PMC9964957, “A Liquid Chromatography Tandem Mass Spectrometry Method for the Simultaneous Estimation of the Dopamine Receptor Antagonist LE300 and Its N-methyl Metabolite in Plasma: Application to a Pharmacokinetic Study” (Molecules, 2023).

A short description of data set [1]: Stability in stock preparations. The class given is physicochemical. To be noted: stock preparations kept at −80 °C for 28 days. How it is done: LE300 and MLE300 stock solutions were prepared separately in a mixture of methanol and water (1:1) at a concentration of 1 mg/mL. Ponatinib (IS) stock solution was prepared in DMSO at 1 mg/mL. […] Successive working solutions of LE300 and MLE300 were additionally obtained through dilution using ultrapure water at concentrations of 0.05, 0.5, 5, and 20 µg/mL. A working solution of IS was prepared in ultrapure water at a concentration of 20 ng/mL. Two calibrators at concentrations ranged from 1 to 200 ng/mL and 2 to 200 ng/mL for LE300 and MLE300, respectively, were prepared in blank rat plasma from the intermediate solutions. Different quality control samples for LE300 at 1.0 ng/mL for the LLOQ, 3.0 ng/mL for the QC sample at low concentration, (LOQ), 75 ng/mL for the QC sample at mid concentration (MQC), and 175 ng/mL for the QC sample at high concentration (HQC) were prepared by spiking an appropriate volume of the intermediate solutions with blank rat plasma. Similarly, different quality control samples for MLE300 at 2.0, 6.0, 90, and 180 ng/mL for LLOQ, LOQ, MQC, and HQC were prepared. The peak area ratios of LE300 and MLE300 to IS were treated to obtain the calibration curve of each drug. Alternatively, the corresponding regression equation was derived.

A short description of a further data set: in vivo. The conditions noted are these: male, Wistar, rat, plasma, po, 10 mg/kg.
For data set [2] the following is noted: rat plasma.
[3] abbreviates: high QC (nominal 175 ng/mL LE300, 180 ng/mL MLE300).
[4] abbreviates: low QC (nominal 3 ng/mL LE300, 6 ng/mL MLE300).

In general, AUC(0-inf) refers to total exposure, with the tail of the curve extrapolated. Read a high AUC(0-inf) as high exposure. By AUC(0-t) is commonly meant exposure summed from dosing to a finite time, without extrapolation to infinity. For orientation: Tmax means the time at which the peak concentration occurs. Usually half-life stands for how long it takes for the measured level to halve. High values mean slow decline, low ones rapid decline. For orientation: Cmax means the maximum level reached in the sampled fluid or tissue. In the case of `CN1CCc2ccccc2Cc2[nH]c3ccccc3c2CC1` [LE300, 7-methyl-6,7,8,9,14,15-hexahydro-5Hbenz[d]indolo[2,3-g]azecine], for the setting “rat, in vivo, po, 10 mg/kg”, the “CL/F (total clearance of the drug from plasma after oral administration)” value is 0.017 ± 0.01 L/h. For the same molecule, in data set [1], the “Stability in stock preparations” value is listed as “perfect stability”. Further, in the data set “in vivo”, the AUC(0-inf) was determined as 577 ± 22.4 ng·h/mL, the area under the curve AUC(0-t) was determined as 524 ± 24.3 ng·h/mL, the time to peak (Tmax) came to 2 ± 0.18 h and the half-life is 7.38 ± 0.17 h. Moreover, the Cmax in the data set “in vivo” (Cmax (maximum plasma concentration), rat plasma, single oral dose 10 mg/kg LE300, mean ± SD, six rats) was determined as 151 ± 12.5 ng/mL. Also, in data set [2] (setting [3]), the “Autosampler Stability (24 h at 15 °C)” value was determined as 98.9 ± 1.3%; the “Freeze-Thaw Stability (3 cycles, −80 °C)” value is listed as 99.2 ± 1.3%; the “Long-Term Stability (−80 °C for 28 d)” value is 99.2 ± 1.7%; the “Short-Term Stability (4 h at Room T)” value was 98.3 ± 1.8%. Moreover, in data set [2] (setting [4]), the “Autosampler Stability (24 h at 15 °C)” value is on record as 98.5 ± 1.8%; the “Freeze-Thaw Stability (3 cycles, −80 °C)” value was 97.9 ± 1.5%; the “Long-Term Stability (−80 °C for 28 d)” value was found to be 97.7 ± 1.4%; the “Short-Term Stability (4 h at Room T)” value stood at 98.5 ± 1.6%.

On to `CN1CCc2ccccc2Cc2c(c3ccccc3n2C)CC1` [MLE300], for which the “CL/F (total clearance of the drug from plasma after oral administration)” value (rat plasma, single oral dose 10 mg/kg LE300, mean ± SD, six rats) is reported as 0.012 ± 0.01 L/h. Moreover, the “Stability in stock preparations” value in data set [1] was “perfect stability”. For the same molecule, in the data set “in vivo”, the area under the curve AUC(0-inf) is 790 ± 37.2 ng·h/mL, the AUC(0-t) amounted to 762 ± 34.3 ng·h/mL, the Cmax turned out to be 170 ± 26.3 ng/mL and the time to peak (Tmax) came to 3 ± 0.18 h. In addition, in “in vivo”, the half-life is 4.56 ± 0.29 h. In addition, in data set [2] (setting [3]), the “Autosampler Stability (24 h at 15 °C)” value is 98.5 ± 1.7%; the “Freeze-Thaw Stability (3 cycles, −80 °C)” value is recorded as 99.5 ± 1.5%; the “Long-Term Stability (−80 °C for 28 d)” value came to 99.2 ± 2.3%; the “Short-Term Stability (4 h at Room T)” value worked out at 98.8 ± 1.8%. For the same molecule, in data set [2] (setting [4]), the “Autosampler Stability (24 h at 15 °C)” value is given as 99.3 ± 1.7%; the “Freeze-Thaw Stability (3 cycles, −80 °C)” value is recorded as 98.2 ± 1.4%; the “Long-Term Stability (−80 °C for 28 d)” value amounted to 98.9 ± 1.4%; the “Short-Term Stability (4 h at Room T)” value was found to be 97.9 ± 1.6%.
